According to publication PMC5421785, “Citrullination only infrequently impacts peptide binding to HLA class II MHC” (PLoS ONE, 2017):
Where two headings read alike, the source gives them in different places. Ends that are not written are not given here.

Legend:
Assay in all cases: HLA class II peptide binding, inhibition of radiolabeled peptide binding to purified MHC
DPB1*04:01 = target: T1, DPB1*04:01 (Homo sapiens, UniProt P04440+P20036)
T1 construct: EBV transformed homozygous cell lines were used as sources of MHC molecules; endogenous in cells; host or cells: EBV transformed homozygous cell lines
T1 sequence (P04440 30-258): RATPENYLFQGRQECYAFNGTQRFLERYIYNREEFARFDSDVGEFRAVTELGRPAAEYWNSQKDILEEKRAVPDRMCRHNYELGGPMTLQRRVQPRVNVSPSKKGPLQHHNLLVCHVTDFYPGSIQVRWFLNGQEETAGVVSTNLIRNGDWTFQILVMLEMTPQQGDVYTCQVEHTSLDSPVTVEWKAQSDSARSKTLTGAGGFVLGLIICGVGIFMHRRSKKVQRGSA
T1 sequence (P20036 29-260 partner): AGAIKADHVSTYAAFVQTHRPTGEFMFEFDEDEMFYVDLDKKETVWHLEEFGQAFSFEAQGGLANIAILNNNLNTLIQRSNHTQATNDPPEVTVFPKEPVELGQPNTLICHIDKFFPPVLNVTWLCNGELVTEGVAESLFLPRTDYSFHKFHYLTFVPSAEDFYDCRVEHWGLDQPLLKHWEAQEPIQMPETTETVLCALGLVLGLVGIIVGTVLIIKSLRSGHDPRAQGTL

HLA-DRB1*01:01 = target: T2, HLA-DRB1*01:01 (Homo sapiens, UniProt P01903+P01911, A100R/D57E/F55L/F60I/F76Y/I96L/L162R/M171V/P40L/Q125E/R42F/V115G/Y59C); settings: read-out: DRB1*01:01 binding capacity, WT peptide (IC50 nM)
T2 construct: EBV transformed homozygous cell lines were used as sources of MHC molecules; endogenous in cells; host or cells: EBV transformed homozygous cell lines

HLA-DRB1*04:01 = target: T3, HLA-DRB1*04:01 (Homo sapiens, UniProt P01903+P01911, A100K/A169T/F76Y/I96L/K127E/L162R/M171V/N62H/P40V/Q125Y/R42H/S133A/S149N/S66Y/V115G/V209L/W38E); settings: read-out: DRB1*04:01 binding capacity, WT peptide (IC50 nM)
T3 construct: EBV transformed homozygous cell lines were used as sources of MHC molecules; endogenous in cells; host or cells: EBV transformed homozygous cell lines

[1] = wild-type (unmodified Arg) 15-mer peptide, purified HLA-DRB1*01:01
[2] = wild-type (unmodified Arg) 15-mer peptide, purified HLA-DRB1*04:01

| Molecule | IC50 (DPB1*04:01) [µM] | IC50 (HLA-DRB1*01:01; [1]) [nM] | IC50 (HLA-DRB1*04:01; [2]) [nM] | IC50 (HLA-DRB1*01:01) [nM] | IC50 (HLA-DRB1*04:01) [nM] |
| --- | --- | --- | --- | --- | --- |
| CC(C)C[C@H](NC(=O)[C@H](CCCCN)NC(=O)[C@H](CC(C)C)NC(=O)[C@@H](NC(=O)[C@H](CC(N)=O)NC(=O)[C@H](CCC(N)=O)NC(=O)[C@H](CCCCN)NC(=O)[C@@H](NC(=O)[C@H](Cc1ccc(O)cc1)NC(=O)[C@H](CCCCN)NC(=O)[C@@H]1CCCN1)C(C)C)[C@@H](C)O)C(=O)N[C@@H](C)C(=O)N[C@H](C(=O)O)[C@@H](C)O [HA 307–319, reference compound] | 39.1 |  |  |  |  |
| GAEGPPGPQGLAGQR [Collagen 966 WT] |  | > 40000 | > 40000 |  |  |
| GAQGLQGPRGLPGTP [Collagen 711 WT] |  | 352 | > 40000 |  |  |
| GDRGEAGAQGPMGPS [Collagen 1086 WT] |  | 9550 | > 40000 |  |  |
| GEESRISLPLPNFSS [Vimentin 406 WT] |  | 527 | 7570 |  |  |
| GGPGTASRPSSSRSY [Vimentin 16 WT] |  |  |  | 5230 | 39500 |
| GHRGFTGLQGLPGPP [Collagen 1131 WT] |  | 0.77 | 335 |  |  |
| GIAGAPGFPGPRGPP [Collagen 426 WT] |  | 239 | > 40000 |  |  |
| GIVGLPGQRGERGFP [Collagen 981 WT] |  | 6.4 | 2450 |  |  |
| GLPGAPGLRGLPGKD [Collagen 621 WT] |  | 810 | > 40000 |  |  |
| GPQGARGQPGVMGFP [Collagen 591 WT] |  | 44 | 2570 |  |  |
| GPRGERGFPGERGSP [Collagen 696 WT] |  | 11200 | > 40000 |  |  |
| GPSGKDGPKGARGDS [Collagen 921 WT] |  | > 40000 | > 40000 |  |  |
| GPTGVTGPKGARGAQ [Collagen 876 WT] |  | 952 | > 40000 |  |  |
| IDVDVSKPDLTAALR [Vimentin 256 WT] |  |  |  | 1490 | 21400 |
| KAGEKGLPGAPGLRG [Collagen 616 WT] |  | 363 | > 40000 |  |  |
| LAGQRGIVGLPGQRG [Collagen 976 WT] |  | 20 | 9280 |  |  |
| LGPREKGPDPLQYMR [Collagen 1226 WT] |  | 6720 | > 40000 |  |  |
| LGVMQGPMGPMGPRG [Collagen 196 WT] |  | 19 | > 40000 |  |  |
| LLAELEQLKGQGKSR [Vimentin 131 WT] |  |  |  | 248 | > 40000 |
| LPGARGLTGRPGDAG [Collagen 556 WT] |  | 851 | > 40000 |  |  |
| LPLVDTHSKRTLLIK [Vimentin 431 WT] |  | 641 | 5090 |  |  |
| LVAAVLRCQGQDVQE [Collagen 16 WT] |  | 21 | 4730 |  |  |
| MALDIEIATYRKLLE [Vimentin 391 WT] |  | 86 | 5590 |  |  |
| MARHLREYQDLLNVK [Vimentin 376 WT] |  | 270 | 1780 |  |  |
| MIRLGAPQTLVLLTL [Collagen 1 WT] |  | 315 | 7130 |  |  |

| Molecule | IC50 (DPB1*04:01) [µM] | IC50 (HLA-DRB1*01:01; [1]) [nM] | IC50 (HLA-DRB1*04:01; [2]) [nM] | IC50 (HLA-DRB1*01:01) [nM] | IC50 (HLA-DRB1*04:01) [nM] |
| --- | --- | --- | --- | --- | --- |
| MSTRSVSSSSYRRMF [Vimentin 1 WT] |  |  |  | 408 | 491 |
| NDALRQAKQESTEYR [Vimentin 306 WT] |  | 15400 | > 40000 |  |  |
| NDKARVEVERDNLAE [Vimentin 166 WT] |  |  |  | 524 | 884 |
| NDRFANYIDKVRFLE [Vimentin 111 WT] |  |  |  | 862 | 16400 |
| NTLQSFRQDVDNASL [Vimentin 201 WT] |  |  |  | 1840 | 408 |
| NYIDKVRFLEQQNKI [Vimentin 116 WT] |  |  |  | 72 | 824 |
| PGFPGPRGPPGPQGA [Collagen 431 WT] |  | > 40000 | > 40000 |  |  |
| PGIDMSAFAGLGPRE [Collagen 1216 WT] |  | 8.7 | 14100 |  |  |
| PGLQGMPGERGAAGI [Collagen 746 WT] |  | 14 | 1050 |  |  |
| PGLRGLPGKDGETGA [Collagen 626 WT] |  | 259 | > 40000 |  |  |
| PGPAGPTGKQGDRGE [Collagen 1076 WT] |  | > 40000 | > 40000 |  |  |
| PGQRGERGFPGLPGP [Collagen 986 WT] |  | 743 | > 40000 |  |  |
| PNFSSLNLRETNLDS [Vimentin 416 WT] |  | 538 | 6480 |  |  |
| PPGPQGPAGEQGPRG [Collagen 121 WT] |  | 22400 | > 40000 |  |  |
| PTGKQGDRGEAGAQG [Collagen 1081 WT] |  | 31000 | > 40000 |  |  |
| QAKQESTEYRRQVQS [Vimentin 311 WT] |  | 1500 | 17000 |  |  |
| QDGQRYNDKDVWKPE [Collagen 36 WT] |  | > 40000 | > 40000 |  |  |
| QGKSRLGDLYEEEMR [Vimentin 141 WT] |  |  |  | 34600 | > 40000 |
| QGPRGLPGTPGTDGP [Collagen 716 WT] |  | 10400 | > 40000 |  |  |
| REEAENTLQSFRQDV [Vimentin 196 WT] |  |  |  | 6560 | 6010 |
| REGSPGADGPPGRDG [Collagen 1036 WT] |  | > 40000 | > 40000 |  |  |
| REKLQEEMLQREEAE [Vimentin 186 WT] |  |  |  | 13800 | > 40000 |
| RGQPGVMGFPGPKGA [Collagen 596 WT] |  | 422 | > 40000 |  |  |
| RQVQSLTCEVDALKG [Vimentin 321 WT] |  | 2730 | 9140 |  |  |
| RSSVPGVRLLQDSVD [Vimentin 71 WT] |  |  |  | 261 | 4620 |
| RTYSLGSALRPSTSR [Vimentin 36 WT] |  |  |  | 11 | 769 |

| Molecule | IC50 (DPB1*04:01) [µM] | IC50 (HLA-DRB1*01:01; [1]) [nM] | IC50 (HLA-DRB1*04:01; [2]) [nM] | IC50 (HLA-DRB1*01:01) [nM] | IC50 (HLA-DRB1*04:01) [nM] |
| --- | --- | --- | --- | --- | --- |
| SAFAGLGPREKGPDP [Collagen 1221 WT] |  | 50 | > 40000 |  |  |
| SAVRLRSSVPGVRLL [Vimentin 66 WT] |  |  |  | 7.9 | 5060 |
| SKPDLTAALRDVRQQ [Vimentin 261 WT] |  |  |  | 5190 | > 40000 |
| SPGGVYATRSSAVRL [Vimentin 56 WT] |  |  |  | 7.2 | 1150 |
| SSRSYVTTSTRTYSL [Vimentin 26 WT] |  |  |  | 70 | 245 |
| STEYRRQVQSLTCEV [Vimentin 316 WT] |  | 138 | 600 |  |  |
| TAALRDVRQQYESVA [Vimentin 266 WT] |  |  |  | 771 | 6320 |
| TGFPGAAGRVGPPGS [Collagen 896 WT] |  | 431 | > 40000 |  |  |
| TGPKGARGAQGPPGA [Collagen 881 WT] |  | 17000 | > 40000 |  |  |
| THSKRTLLIKTVETR [Vimentin 436 WT] |  | 109 | 6220 |  |  |
| TIGRLQDEIQNMKEE [Vimentin 361 WT] |  | 13700 | 21800 |  |  |
| TLLIKTVETRDGQVI [Vimentin 441 WT] |  | 826 | 6020 |  |  |
| TNEKVELQELNDRFA [Vimentin 101 WT] |  |  |  | 5150 | 17900 |
| TNESLERQMREMEEN [Vimentin 336 WT] |  | 15900 | > 40000 |  |  |
| TNLDSLPLVDTHSKR [Vimentin 426 WT] |  | 904 | > 40000 |  |  |
| TVETRDGQVINETSQ [Vimentin 446 WT] |  |  |  | 17900 | 9590 |
| VDQLTNDKARVEVER [Vimentin 161 WT] |  |  |  | 16500 | 31600 |
| VEVERDNLAEDIMRL [Vimentin 171 WT] |  |  |  | 12500 | 16400 |
| VLLTLLVAAVLRCQG [Collagen 11 WT] |  | 148 | > 40000 |  |  |
| VSSSSYRRMFGGPGT [Vimentin 6 WT] |  |  |  | 25 | 725 |
| VTTSTRTYSLGSALR [Vimentin 31 WT] |  |  |  | 5 | 1220 |
| YATRSSAVRLRSSVP [Vimentin 61 WT] |  |  |  | 17 | 1600 |
| YKSKFADLSEAANRN [Vimentin 291 WT] |  |  |  | 394 | 953 |
| YRRMFGGPGTASRPS [Vimentin 11 WT] |  |  |  | 440 | 9750 |
